We go through three compounds from PMC3883354 (Bioorganic & medicinal chemistry, 2013).

The target of this assay is T1, human GVIA iPLA2 (Homo sapiens, UniProt O60733).
T1 sequence (O60733 1-806): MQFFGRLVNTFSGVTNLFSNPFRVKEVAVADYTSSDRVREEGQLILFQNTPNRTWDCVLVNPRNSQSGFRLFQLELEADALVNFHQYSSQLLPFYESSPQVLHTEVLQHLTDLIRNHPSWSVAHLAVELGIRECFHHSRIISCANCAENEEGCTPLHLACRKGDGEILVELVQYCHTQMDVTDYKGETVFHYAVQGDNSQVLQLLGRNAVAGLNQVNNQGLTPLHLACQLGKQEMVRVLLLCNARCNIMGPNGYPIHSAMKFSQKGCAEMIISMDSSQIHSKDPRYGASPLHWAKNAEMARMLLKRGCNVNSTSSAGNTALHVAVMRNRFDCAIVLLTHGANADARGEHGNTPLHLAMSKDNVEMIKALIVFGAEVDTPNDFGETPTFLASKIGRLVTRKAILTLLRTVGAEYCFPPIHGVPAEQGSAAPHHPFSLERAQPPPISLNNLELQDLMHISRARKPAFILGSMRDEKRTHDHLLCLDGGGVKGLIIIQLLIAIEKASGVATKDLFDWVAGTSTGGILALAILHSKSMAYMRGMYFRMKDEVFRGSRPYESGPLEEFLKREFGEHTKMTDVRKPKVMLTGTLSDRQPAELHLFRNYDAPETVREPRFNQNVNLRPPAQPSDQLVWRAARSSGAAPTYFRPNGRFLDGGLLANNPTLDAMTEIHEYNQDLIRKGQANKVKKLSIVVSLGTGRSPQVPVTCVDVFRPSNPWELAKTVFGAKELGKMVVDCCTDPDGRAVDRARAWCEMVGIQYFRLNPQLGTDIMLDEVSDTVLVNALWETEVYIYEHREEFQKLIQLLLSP
Briefly: mixed micelle-based modified Dole assay, GVIA iPLA2 inhibition. The class given is biochemical. As to conditions: for fold weaker towards iPLA2 than FKGK11: compared with FKGK11.

Take `O=C(CCCCc1ccc(-c2ccccc2)cc1)C(F)(F)F` [5e, 6-(Biphenyl-4-yl)-1,1,1-trifluorohexan-2-one]: the “fold weaker towards iPLA2 than FKGK11” value stood at 13 fold.
The same measure, in the same setting: for `O=C(CCCCc1ccc(-c2ccccc2)cc1)C(F)(F)C(F)(F)F` [6e, 7-(Biphenyl-4-yl)-1,1,1,2,2-pentafluoroheptan-3-one] the value was “ninefold weaker”.
`O=C(CCCCc1cccc2ccccc12)C(F)(F)F` [5a, 1,1,1-Trifluoro-6-(naphthalen-1-yl)hexan-2-one]: under “compared with FKGK18”, the “times weaker inhibitor towards GVIA iPLA2 than FKGK18” value worked out at 9 times.
